Reference: patent US10844351B2, “Method for producing otic progenitors” (priority 2015, dated 2020)

Assays:
Format in all cases: cell-based, human
H14S9 hES cell line [1] = assay: QPCR of otic marker gene expression after 12 day otic differentiation protocol
Protocol: The effect of the Wnt inhibitors was initially explored in the backdrop of a known differentiation protocol, which includes FGF 3 and FGF 10 supplementation from the outset. Experiments were carried out to determine the effect of canonical Wnt inhibition on the differentiation of otic progenitors in FGF medium (standard concentration of 50 ng/ml for each FGF 3 and FGF 10) and obtain an optimal working concentration. IWR-1-endo was present from day 0 of differentiation (day 0 refers to the initial seeding of the hES cells into differentiation conditions) and were maintained throughout the 12 day protocol. At the end of the differentiation protocol, RNA was extracted and PAX2, PAX8 and FOXG1 gene expression was quantified by real time PCR (QPCR) using SYBR Green (Sigma Aldrich). Delta Cts were calculated against the large ribosomal protein RPLPO housekeeping gene, and Delta Ct values were compared against the levels expressed by cells differentiated in the control DFNB medium (Livak and Schmittgen, 2001). FIG. 1 compares the dose responses of IWR-1-endo and the effect on the gene expression of PAX2, PAX8 and FOXG1 in the H14S9 hES cell line. Dimethyl sulfoxide (DMSO) was the vehicle for all small molecule compounds. A vehicle-only control was added to FGF medium to ascertain the effects of DMSO. […] This provided confidence that the Wnt inhibitor compound was exerting an effect on gene expression, and not the carrier vehicle. […] The optimal concentration of IWR-1-endo agrees with published findings in human stem cell studies (Chen et al., 2009, Hudson et al., 2012).
Further investigating the timing of canonical Wnt inhibition it was important to address whether inhibition was required throughout the whole 12-day differentiation protocol. Experiments were set up to inhibit canonical Wnt signalling for different lengths of time. In combination with FGF medium, Wnt inhibition took place from day 0 to day 4, day 0 to day 6, or day 0 to day 8. […] At the end of day 12, gene expression of PAX2, PAX8 and FOXG1 was quantified relative to the DFNB baseline condition, and is shown in FIG. 6. […]

H14S9 hES cell line [2] = assay: QPCR of ectoderm, mesoderm and endoderm lineage marker gene expression after 12 day otic differentiation
Protocol: With the H14S9 hES cell line, 12 day otic differentiation experiments were carried out in control DFNB, FGF, or FGF with 10 μM IWR-1-endo supplemented medium. Gene expression of the three germ layer lineages relative to the baseline DFNB condition were quantified by QPCR. Two gene markers for each germ layer were investigated; PAX6 and NEST/N (ectoderm), BRACHYURY and MEOX1 (mesoderm), and AFP and GATA6 (endoderm) (FIG. 2).
Following a lost-of function/gain-of function paradigm, an experiment was done to determine the effect of activating canonical Wnt signalling throughout the 12 days of otic differentiation. The small molecule compound BIO (6-bromoindirubin-3′-oxime, Tocris) is a potent inhibitor of GSK-3β kinase, a component of the β-catenin degradation complex. Inhibition of GSK-3β kinase activity disrupts the proteolytic breakdown of β-catenin and so Wnt activity is sustained (Meijer et al., 2003). BIO is well established in the literature and has been used to investigate survival and proliferation of hES cells and also lineage differentiation studies (Dravid et al., 2005) (Tseng et al., 2006). BIO was tested at a concentration of 2 μM (as recommended in the literature). […] In contrast to inhibiting canonical Wnt signalling throughout the 12 day protocol, activating canonical Wnt signalling throughout appears to downregulate gene expression of the otic and ectoderm markers, with upregulation of markers of mesoderm and endoderm.

H14S9 hES cell line [3] = assay: Cell death in differentiating cultures; details: 20 μM IWR-1-endo in FGF medium
Protocol: The effect of the Wnt inhibitors was initially explored in the backdrop of a known differentiation protocol, which includes FGF 3 and FGF 10 supplementation from the outset. Experiments were carried out to determine the effect of canonical Wnt inhibition on the differentiation of otic progenitors in FGF medium (standard concentration of 50 ng/ml for each FGF 3 and FGF 10) and obtain an optimal working concentration. IWR-1-endo was present from day 0 of differentiation (day 0 refers to the initial seeding of the hES cells into differentiation conditions) and were maintained throughout the 12 day protocol. At the end of the differentiation protocol, RNA was extracted and PAX2, PAX8 and FOXG1 gene expression was quantified by real time PCR (QPCR) using SYBR Green (Sigma Aldrich). Delta Cts were calculated against the large ribosomal protein RPLPO housekeeping gene, and Delta Ct values were compared against the levels expressed by cells differentiated in the control DFNB medium (Livak and Schmittgen, 2001). FIG. 1 compares the dose responses of IWR-1-endo and the effect on the gene expression of PAX2, PAX8 and FOXG1 in the H14S9 hES cell line. Dimethyl sulfoxide (DMSO) was the vehicle for all small molecule compounds. A vehicle-only control was added to FGF medium to ascertain the effects of DMSO. […]

[4] = FGF medium with 10 μM IWR-1-endo, 12 days, compared to FGF condition
[5] = 2 μM BIO in FGF medium throughout 12 days, one experiment

Compound | gene expression of PAX2, PAX8 and FOXG1 (H14S9 hES cell line [1]; 10 μM IWR-1-endo in FGF medium (50 ng/ml FGF 3 and FGF 10), day 0 to day 12, relative to DFNB) | gene expression of PAX2, PAX8 or FOXG1 (H14S9 hES cell line [1]; IWR-1-endo day 0 to day 4 or day 0 to day 6, then FGF medium only until day 12, compared to FGF medium alone) | gene expression of the otic markers (H14S9 hES cell line [1]; canonical Wnt inhibition with IWR-1-endo day 0 to 8 or day 0 to 12, compared to standard FGF medium) | ectodermal differentiation (PAX6, NESTIN gene expression) (H14S9 hES cell line [2]; [4]) | gene expression of mesoderm and endoderm markers (H14S9 hES cell line [2]; [4]) | AFP gene expression (H14S9 hES cell line [2]; FGF medium with IWR-1-endo, 12 days, compared to FGF condition) | cell death in the cultures (H14S9 hES cell line [3]) | gene expression of markers of mesoderm and endoderm (H14S9 hES cell line [2]; [5]) | gene expression of the otic and ectoderm markers (H14S9 hES cell line [2]; [5])
O=C(Nc1cccc2cccnc12)c1ccc(N2C(=O)[C@@H]3[C@H](C2=O)[C@@H]2C=C[C@H]3C2)cc1 [IWR-1-endo] | more robust and reproducible upregulation | did not significantly alter | Significant upregulation | enhanced further over the FGF condition | significantly reduced compared to the FGF condition | significant downregulation | very high levels of cell death | – | –
O=C1Nc2cc(Br)ccc2/C1=C1/Nc2ccccc2/C1=N\O [BIO, 6-bromoindirubin-3′-oxime] | – | – | – | – | – | – | – | upregulation | downregulate
